Results reported in patent US10123537B2, “Amide compound or salt thereof, agricultural and horticultural insecticide and microbicide comprising the compound, and method for using the insecticide and microbicide” (NIHON NOHYAKU CO., LTD., priority 2013, dated 2018).

Assays:
[1] = system: wheat powdery mildew fungus Erysiphe graminis; conditions: 200 ppm, foliar application to wheat plants, 10 mL per pot, 7 days after inoculation
[2] = system: Meloidogyne incognita; experiment: Nematicidal test on Meloidogyne incognita; format: in vivo; conditions: 500 ppm, 1 mL soil drench, potted melon seedlings, 8 days after inoculation
Method: Nematicidal Test on Meloidogyne incognita
Agrochemical formulations containing different amide compounds represented by the general formula (I) of the present invention or salts thereof as an active ingredient were separately diluted to a concentration of 500 ppm. The diluted agrochemical formulations (1 mL) were drenched into the soil around the foot of potted melon seedlings. At one day after the agrochemical treatment, an aqueous suspension of Meloidogyne incognita (about 500 worms/mL) was drenched into the soil for inoculation both in a treatment plot and in a non-treatment plot. The inoculated pots were kept in a greenhouse at 25° C. At 8 days after the inoculation, the root of each seedling was washed with water, the number of root nodules was counted, and the nematicidal effect was evaluated according to the following criteria.
A: the percentage of the number of root nodules relative to the non-treatment plot is 0%.
B: the percentage of the number of root nodules relative to the non-treatment plot is 1 to 10%.
C: the percentage of the number of root nodules relative to the non-treatment plot is 11 to 20%.
D: the percentage of the number of root nodules relative to the non-treatment plot is 21 to 50%.

Row | SMILES | control effect (control rate, lesion area) activity level [1] | nematicidal effect (number of root nodules relative to non-treatment plot) activity level [2]
1 | CC[S+]([O-])c1cc(C(F)(F)F)ccc1C(=O)Nc1ccc([Si](C)(C)C)cc1C (stereo not shown) [Compound 5-64] | D or higher | 
2 | CC[S+]([O-])c1cc(C(F)(F)F)ccc1C(=O)N(C)c1ccc(Cl)c(C(F)(F)F)c1 (stereo not shown) [Compound 3-31] | D or higher | 
3 | CCS(=O)(=O)c1cc(C(F)(F)F)ccc1C(=O)N(C)c1ccc(Cl)c(C(F)(F)F)c1 [Compound 3-32] | D or higher | 
4 | CCS(=O)(=O)c1cc(C(F)(F)F)ccc1C(=O)N(C)c1ccc(C(F)(F)F)nn1 [Compound 2-3] |  | D or higher
5 | CCS(=O)(=O)c1cc(C(F)(F)F)ccc1C(=O)N(C)c1ccc(C(F)(C(F)(F)F)C(F)(F)F)cc1 [Compound 3-9] | D or higher | D or higher
6 | CCS(=O)(=O)c1cc(C(F)(F)F)ccc1C(=O)Nc1ccc(OC(F)(F)C(F)F)cc1C [Compound 5-71] | D or higher | 
7 | CCS(=O)(=O)c1cc(C(F)(F)F)ccc1C(=O)N(C)c1ccc(C(F)(F)C(F)(F)F)c(C)c1C [Compound 3-50] | D or higher | 
8 | CCS(=O)(=O)c1cc(SC(F)(F)F)ccc1C(=O)Nc1ccc(C(F)(C(F)(F)F)C(F)(F)F)cc1Cl [Compound 6-24] | D or higher | 
9 | CCS(=O)(=O)c1cc(C(F)(F)F)cnc1C(=O)N(c1ccc(C(F)(F)F)cn1)C1CC1 [Compound 1-15] | D or higher | 
10 | CC[S+]([O-])c1cc(C(F)(F)F)ccc1C(=O)N(C)c1ccc(I)cc1F (stereo not shown) [Compound 3-34] | D or higher | 
11 | CCN(C(=O)c1ncc(C(F)(F)F)cc1S(=O)(=O)CC)c1ccc(C(F)(F)F)cn1 [Compound 1-12] |  | D or higher
12 | CC[S+]([O-])c1cc(C(F)(F)F)ccc1C(=O)N(C)c1ccc(Cl)c(Cl)c1 (stereo not shown) [Compound 3-28] | D or higher | 
13 | CCSc1cc(SC(F)(F)F)ccc1C(=O)Nc1ccc(C(F)(C(F)(F)F)C(F)(F)F)cc1Cl [Compound 6-22] | D or higher | 
14 | CC[S+]([O-])c1cc(C(F)(F)F)ccc1C(=O)Nc1ccc(OC(F)(F)F)cc1Br (stereo not shown) [Compound 5-73] | D or higher | 
15 | CCS(=O)(=O)c1cc(C(F)(F)F)ccc1C(=O)N(C)c1ccc(SC(F)(F)F)cc1 [Compound 3-17] | D or higher | 
16 | CC[S+]([O-])c1cc(C(F)(F)F)ccc1C(=O)N(C)c1ccc(C(C)C)cc1 (stereo not shown) [Compound 3-19] | D or higher | 
17 | CCSc1cc(C(F)(F)F)cnc1C(=O)N(c1ccc(C(F)(F)F)cn1)C1CC1 [Compound 1-13] |  | D or higher
18 | CCS(=O)(=O)c1cc(C(F)(F)F)ccc1C(=O)Nc1ccc(F)c(C(F)(F)F)c1F [Compound 4-22] | D or higher | 
19 | CCS(=O)(=O)c1cc(C(F)(F)F)ccc1C(=O)Nc1ccc(C(F)(C(F)(F)F)C(F)(F)Br)cc1Cl (stereo not shown) [Compound 5-59] | D or higher | 
20 | CCSc1cc(C(F)(F)F)ccc1C(=O)Nc1ccc(C(F)(C(F)F)C(F)(F)F)cc1Cl (stereo not shown) [Compound 5-51] | D or higher | 

Row | SMILES | control effect (control rate, lesion area) activity level [1] | nematicidal effect (number of root nodules relative to non-treatment plot) activity level [2]
21 | CCSc1cc(C(F)(F)F)ccc1C(=O)N(C)c1ccc(C(F)(F)F)nn1 [Compound 2-1] |  | D or higher
22 | CC[S+]([O-])c1cc(C(F)(F)F)ccc1C(=O)N(C)c1ccc(Cl)cc1 (stereo not shown) [Compound 3-22] |  | D or higher
23 | CCS(=O)(=O)c1cc(OC)ccc1C(=O)Nc1ccc(C(F)(C(F)(F)F)C(F)(F)F)cc1C [Compound 6-12] | D or higher | 
24 | CCS(=O)(=O)c1cc(C(F)(F)C(F)(F)F)ccc1C(=O)N(C)c1ccc(C(F)(F)F)cn1 [Compound 1-44] |  | D or higher
25 | CC[S+]([O-])c1cc(C(F)(F)F)ccc1C(=O)Nc1ccc(F)c(C(F)(F)F)c1F (stereo not shown) [Compound 4-21] | D or higher | 
26 | CCSc1cc(C(F)(F)F)ccc1C(=O)N(C)c1ccc(C(F)(C(F)(F)F)C(F)(F)F)nc1 [Compound 1-22] | D or higher | 
27 | CCSc1cc(C(F)(F)F)ccc1C(=O)N(C)c1ccc(C(F)(C(F)(F)F)C(F)(F)F)cc1 [Compound 3-7] |  | D or higher
28 | CCS(=O)(=O)c1cc(C(F)(F)F)ccc1C(=O)Nc1ccc(C(F)(F)C(F)(F)C(F)(F)C(F)(F)F)cc1C [Compound 4-16] | D or higher | 
29 | CCc1cc(OC(F)(F)F)ccc1NC(=O)c1ccc(C(F)(F)F)cc1S(=O)(=O)CC [Compound 5-77] | D or higher | 
30 | CC[S+]([O-])c1cc(C(F)(F)F)ccc1C(=O)Nc1ccc(C(F)(C(F)(F)F)C(F)(F)F)cc1Cl (stereo not shown) [Compound 4-27] | D or higher | 
31 | CC[S+]([O-])c1cc(SC(F)(F)F)ccc1C(=O)Nc1ccc(C(F)(C(F)(F)F)C(F)(F)F)cc1Cl (stereo not shown) [Compound 6-23] | D or higher | 
32 | CC[S+]([O-])c1cc(C(F)(F)F)ccc1C(=O)N(C)c1ccc(OC(F)(F)F)cc1 (stereo not shown) [Compound 3-13] | D or higher | 
33 | CC[S+]([O-])c1cc(C(F)(F)F)ccc1C(=O)N(C)c1ccc(C(F)(C(F)(F)F)C(F)(F)F)cc1 (stereo not shown) [Compound 3-8] |  | D or higher
34 | CC[S+]([O-])c1cc(C(F)(F)F)ccc1C(=O)N(C)c1ccc(SC(F)(F)F)cc1 (stereo not shown) [Compound 3-16] | D or higher | 
35 | CCS(=O)(=O)c1cc(C(F)(F)F)ccc1C(=O)N(C)c1ccc(C(F)(C(F)(F)F)C(F)(F)F)nc1 [Compound 1-24] |  | D or higher
36 | CC[S+]([O-])c1cc(C(F)(F)F)ccc1C(=O)Nc1ccc(OC(F)(F)C(F)F)cc1C (stereo not shown) [Compound 5-70] | D or higher | 
37 | CCSc1cc(C(F)(F)F)ccc1C(=O)N(c1ccc(C(F)(F)F)cn1)C1CC1 [Compound 1-7] |  | D or higher
38 | CC[S+]([O-])c1cc(C(F)(F)F)cnc1C(=O)N(c1ccc(C(F)(F)F)cn1)C1CC1 (stereo not shown) [Compound 1-14] | D or higher | 
39 | CCS(=O)(=O)c1cc(C(F)(F)F)ccc1C(=O)N(C)c1ccc(C(F)(F)C(F)(F)F)c(C)c1 [Compound 3-47] | D or higher | 
